Assay results taken from patent publication US20240252488A1 (KOREA RESEARCH INSTITUTE OF CHEMICAL TECHNOLOGY, priority 2020, published 2024).

Experiments:
FADD−/− Jurkat cells = experiment: Necroptosis inhibition assay, TNF-α-induced necroptosis (CellTiter-Glo 2.0); assay type: cell-based, human; conditions: TNF-α 15 ng/mL; for Necroptosis inhibition assay (Rescue %) 1 μM: compound 1 μM; for Necroptosis inhibition assay (Rescue %) 10 μM: compound 10 μM
Method in brief: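 Luminescent ATP measurement gave viability, from which cytotoxicity and necroptosis inhibition rate were derived. Before that, cells (5.0×10^5 cells/mL) saw compound at 0.1, 1 or 10 μM final for 30 minutes at room temperature, then TNF-α (15 ng/mL final) for 20 to 24 hours at 37° C.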

MLKL [1] = target: T1, MLKL (Homo sapiens, UniProt Q8NB16); experiment: MLKL degradation assay in HepG2 cell line (western blot); assay type: cell-based; design: endogenous in cells; host or cells: HepG2 or HaCaT; conditions: cell line not given; for Degradation assay (Degradation %) 1 μM: compound 1 μM; for Degradation assay (Degradation %) 10 μM: compound 10 μM
T1 sequence (Q8NB16 1-471): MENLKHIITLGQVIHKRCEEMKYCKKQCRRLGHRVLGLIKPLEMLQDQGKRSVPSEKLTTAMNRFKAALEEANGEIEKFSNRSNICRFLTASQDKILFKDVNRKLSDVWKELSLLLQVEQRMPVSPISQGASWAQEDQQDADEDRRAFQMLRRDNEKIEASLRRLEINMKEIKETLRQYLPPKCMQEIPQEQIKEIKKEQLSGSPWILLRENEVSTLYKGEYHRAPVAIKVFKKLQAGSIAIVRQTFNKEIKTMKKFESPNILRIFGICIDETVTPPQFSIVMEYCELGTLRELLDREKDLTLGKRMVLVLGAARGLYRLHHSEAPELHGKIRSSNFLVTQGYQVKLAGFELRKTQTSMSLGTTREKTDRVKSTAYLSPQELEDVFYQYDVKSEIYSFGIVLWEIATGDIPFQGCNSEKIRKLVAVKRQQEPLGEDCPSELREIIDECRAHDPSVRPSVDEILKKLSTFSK
Method in brief: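 Cells seeded, next day medium swapped for compound-containing medium (final 1 or 10 μM) and incubated 20-24 h at 37 °C. Lysates in RIPA with protease/phosphatase inhibitors were protein-matched by BCA, run on SDS-PAGE and immunoblotted for MLKL.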

MLKL [2] = target: T1, MLKL; experiment: Measurement of binding affinity with MLKL receptor (competitive binding assay, Kd); design: made in house; host or cells: HEK 293 cell line (T7 phage in E. coli BL21-derived host is also described)
Method in brief: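 HEK 293-expressed, DNA-tagged MLKL; ligand beads blocked with biotin and SeaBlock/1% BSA/0.05% Tween 20/1 mM DTT buffer. Cpd from 111× DMSO stock, 0.9% DMSO final. Eluted kinase by qPCR → Kd.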

Compound	Necroptosis inhibition assay (Rescue %) 1 μM (FADD−/− Jurkat cells) [%]	Necroptosis inhibition assay (Rescue %) 10 μM (FADD−/− Jurkat cells) [%]	Degradation assay (Degradation %) 1 μM (MLKL [1]) [%]	Degradation assay (Degradation %) 10 μM (MLKL [1]) [%]	Kd (MLKL [2]) [nM]	Necroptosis inhibition assay (Rescue %) 1 μM (FADD−/− Jurkat cells; FADD−/− Jurkat cells) [%]	Necroptosis inhibition assay (Rescue %) 10 μM (FADD−/− Jurkat cells; FADD−/− Jurkat cells) [%]
Nc1ncc(-c2cnn(C3CCN(CCCCCCCCCCNC(=O)COc4ccc5nnn(C6CCC(=O)NC6=O)c(=O)c5c4)CC3)c2)nc1C(=O)O[C@@H](C(=O)Nc1ccc(F)cc1)c1ccccc1 (stereo partly drawn) [TDH-176, (R)-2-((4-fluorophenyl)amino)-2-oxo-1-phenylethyl 3-amino-6-(1-(1-(10-(2-((3-(2,6-dioxopiperidin-3-yl)-4-oxo-3,4-dihydrobenzo[d][1,2,3]triazin-6-yl)oxy)acetamido)decyl)piperidin-4-yl)-1H-pyrazol-4-yl)pyrazine-2-carboxylate]	44.28	35.42	34.07	23.76	22	–	–
Nc1ncc(-c2cnn(C3CCN(CC4CCN(C(=O)COc5ccc6c(c5)C(=O)N(C5CCC(=O)NC5=O)C6=O)CC4)CC3)c2)nc1C(=O)O[C@@H](C(=O)Nc1ccc(F)cc1)c1ccccc1 (stereo partly drawn) [TDH-171, (R)-2-((4-fluorophenyl)amino)-2-oxo-1-phenylethyl 3-amino-6-(1-(1-((1-(2-((2-(2,6-dioxopiperidin-3-yl)-1,3-dioxoisoindolin-5-yl)oxy)acetyl)piperidin-4-yl)methyl)piperidin-4-yl)-1H-pyrazol-4-yl)pyrazine-2-carboxylate]	93.81	65.91	64.64	64.5	2.3	–	–
Nc1ncc(-c2cnn(C3CCN(C(=O)C4CCN(C(=O)COc5cccc6c5C(=O)N(C5CCC(=O)NC5=O)C6=O)CC4)CC3)c2)nc1C(=O)OC(C(=O)Nc1ccc(F)cc1)c1ccccc1 (stereo not drawn) [TDH-277, 2-((4-fluorophenyl)amino)-2-oxo-1-phenylethyl 3-amino-6-(1-(1-(1-(2-((2-(2,6-dioxopiperidin-3-yl)-1,3-dioxoisoindolin-4-yl)oxy)acetyl)piperidine-4-carbonyl)piperidin-4-yl)-1H-pyrazol-4-yl)pyrazine-2-carboxylate]	43.59	13.88	40.52	53.39	1.5	–	–
Nc1ncc(-c2cnn(C3CCN(CC4CCN(c5cc6c(cc5F)C(=O)N(C5CCC(=O)NC5=O)C6=O)CC4)CC3)c2)nc1C(=O)O[C@@H](C(=O)Nc1ccc(F)cc1)c1ccccc1 (stereo partly drawn) [TDH-519, (R)-2-((4-fluorophenyl)amino)-2-oxo-1-phenylethyl 3-amino-6-(1-(1-((1-(2-(2,6-dioxopiperidin-3-yl)-6-fluoro-1,3-dioxoisoindolin-5-yl)piperidin-4-yl)methyl)piperidin-4-yl)-1H-pyrazol-4-yl)pyrazine-2-carboxylate]	–	–	89.40	86.43	7.1	4.80	17.07
Nc1ncc(-c2ccc(N3CCN(CCOCCOCCNC(=O)COc4ccc5c(c4)C(=O)N(C4CCC(=O)NC4=O)C5=O)CC3)nc2)nc1C(=O)OC(C(=O)Nc1ccc(F)cc1)c1ccccc1 (stereo not drawn) [TDH-262, 2-((4-fluorophenyl)amino)-2-oxo-1-phenylethyl 3-amino-6-(6-(4-(2-(2-(2-(2-((2-(2,6-dioxopiperidin-3-yl)-1,3-dioxoisoindolin-5-yl)oxy)acetamido)ethoxy)ethoxy)ethyl)piperazin-1-yl)pyridin-3-yl)pyrazine-2-carboxylate]	22.59	4.02	58.43	75.8	65	–	–
Nc1ncc(-c2cnn(C3CCN(CC4CCN(CC5CCN(C(=O)c6cccc(C(=O)NC7CCC(=O)NC7=O)c6)CC5)CC4)CC3)c2)nc1C(=O)O[C@@H](C(=O)Nc1ccc(F)cc1)c1ccccc1 (stereo partly drawn) [TDH-546, (R)-2-((4-fluorophenyl)amino)-2-oxo-1-phenylethyl 3-amino-6-(1-(1-((1-((1-(3-((2,6-dioxopiperidin-3-yl)carbamoyl)benzoyl)piperidin-4-yl)methyl)piperidin-4-yl)methyl)piperidin-4-yl)-1H-pyrazol-4-yl)pyrazine-2-carboxylate]	–	–	70.89	81.41	0.4	31.08	28.77
Nc1ncc(-c2cnn(C3CCN(CC4CCN(C(=O)CNc5ccc6c(c5)C(=O)N(C5CCC(=O)NC5=O)C6=O)CC4)CC3)c2)nc1C(=O)O[C@@H](C(=O)Nc1ccc(F)cc1)c1ccccc1 (stereo partly drawn) [TDH-137, (R)-2-((4-fluorophenyl)amino)-2-oxo-1-phenylethyl 3-amino-6-(1-(1-((1-((2-(2,6-dioxopiperidin-3-yl)-1,3-dioxoisoindolin-5-yl)glycyl)piperidin-4-yl)methyl)piperidin-4-yl)-1H-pyrazol-4-yl)pyrazine-2-carboxylate]	76.05	63.68	54.49	54.94	2.8	–	–
COc1ccc(C(=O)N2CCC(C(=O)N3CCC4(CC3)CC(N3CCC(CN5CCC(n6cc(-c7cnc(N)c(C(=O)O[C@@H](C(=O)Nc8ccc(F)cc8)c8ccccc8)n7)cn6)CC5)CC3)C4)CC2)cc1N1CCC(=O)NC1=O [TDH-508, (R)-2-((4-fluorophenyl)amino)-2-oxo-1-phenylethyl 3-amino-6-(1-(1-((1-(7-(1-(3-(2,4-dioxotetrahydropyrimidin-1(2H)-yl)-4-methoxybenzoyl)piperidine-4-carbonyl)-7-azaspiro[3.5]nonan-2-yl)piperidin-4-yl)methyl)piperidin-4-yl)-1H-pyrazol-4-yl)pyrazine-2-carboxylate]	–	–	87.16	90.95	0.4	48.15	39.79
Nc1ncc(-c2cnn(C3CCN(CCOCCOCCOCCNc4cccc5c4C(=O)N(C4CCC(=O)NC4=O)C5=O)CC3)c2)nc1C(=O)O[C@@H](C(=O)Nc1ccc(F)cc1)c1ccccc1 (stereo partly drawn) [TDH-153, (R)-2-((4-fluorophenyl)amino)-2-oxo-1-phenylethyl 3-amino-6-(1-(1-(2-(2-(2-(2-((2-(2,6-dioxopiperidin-3-yl)-1,3-dioxoisoindolin-4-yl)amino)ethoxy)ethoxy)ethoxy)ethyl)piperidin-4-yl)-1H-pyrazol-4-yl)pyrazine-2-carboxylate]	37.21	16.52	37.66	24.63	9.2	–	–
